Source: publication PMC9062151, “GVS-12 attenuates non-alcoholic steatohepatitis by suppressing inflammatory responses via PPARγ/STAT3 signaling pathways” (RSC Advances, 2019)

Target: T1, PPARγ (peroxisome proliferator-activated receptor γ) (Homo sapiens, UniProt P37231)
T1 construct: gene PPARG; PPARγ-LBD
T1 sequence (P37231 235-505 limits assumed): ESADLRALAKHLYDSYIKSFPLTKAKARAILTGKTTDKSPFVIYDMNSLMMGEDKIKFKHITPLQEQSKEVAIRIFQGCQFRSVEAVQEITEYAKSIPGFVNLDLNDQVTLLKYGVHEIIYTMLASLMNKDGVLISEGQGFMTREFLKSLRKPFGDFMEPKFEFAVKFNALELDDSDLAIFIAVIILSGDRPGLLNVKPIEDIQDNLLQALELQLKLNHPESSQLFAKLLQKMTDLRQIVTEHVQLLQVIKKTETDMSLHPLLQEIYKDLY
Assay: LanthaScreen TR-FRET PPARγ competitive binding assay; supported by PPARγ reporter gene activation in HepG2 cells

Ki: 320 nM
Structure (SMILES): O=C(NCc1ccco1)c1ccc(OCc2ccc(C(F)(F)F)cc2)cc1 [GVS-12]
